Measured values published in patent US12643905B2, “Spiropyrrolidine derived antiviral agents” (priority 2021, dated 2026).

What follows are compounds tested against SARS-CoV-2 3CL-protease (Severe acute respiratory syndrome coronavirus 2, UniProt P0DTD1) (assay: SARS-CoV-2 3C-like (3CL) protease fluorescence assay (FRET)). Conditions: recombinant SARS-CoV-2 3CL-protease 10 nM, 30 min preincubation, run in duplicate; read-out: FRET IC50.
Format: biochemical
`N#C[C@@H]1C[C@@]2(CN1C(=O)[C@H](CC1CC1)NC(=O)C(=O)Nc1ccncc1C(F)(F)F)C(=O)Nc1ccccc12` [Example 171] gave an IC50 of under 100 nM.
For `Cc1cccc(C)c1NC(=O)C(=O)N[C@@H](Cc1ccc(F)cc1)C(=O)N1C[C@]2(C[C@H]1C#N)C(=O)Nc1ccccc12` [Example 73], the IC50 was under 100 nM.
`CC(C)(C)C[C@H](NC(=O)C(=O)NC1CCC(F)(F)CC1)C(=O)N1C[C@]2(C[C@H]1C#N)C(=O)Nc1ccccc12` [Example 131] gave an IC50 of under 100 nM.
Compound `CC(C)(C)C[C@H](NC(=O)C(=O)Nc1c(C(F)(F)F)ccc(Cl)c1Cl)C(=O)N1C[C@]2(C[C@H]1C#N)C(=O)Nc1ccccc12` [Example 210] has an IC50 of under 100 nM.
Compound `COc1cccc(C)c1NC(=O)C(=O)N[C@@H](CC(C)(C)C)C(=O)N1C[C@]2(C[C@H]1C#N)C(=O)Nc1ccccc12` [Example 144] has an IC50 of under 100 nM.
Compound `N#C[C@@H]1C[C@@]2(CN1C(=O)[C@H](CC1CC1)NC(=O)C(=O)Nc1c(Cl)cc(F)cc1C(F)(F)F)C(=O)Nc1ccccc12` [Example 209] has an IC50 of under 100 nM.
With `CC(C)(C)C[C@H](NC(=O)C(=O)N1CCC(F)(F)CC1)C(=O)N1C[C@]2(C[C@H]1C#N)C(=O)Nc1ccccc12` [Example 111] the IC50 was over 1000 nM.
With `[2H]C([2H])([2H])N(C(=O)C(=O)Nc1ccc(F)cc1C(F)(F)F)[C@@H](CC1CC1)C(=O)N1C[C@]2(C[C@H]1C#N)C(=O)Nc1ccccc12` [Example 55] the IC50 was under 100 nM.
`N#C[C@@H]1C[C@@]2(CN1C(=O)[C@H](CC1CC1)NC(=O)C(=O)Nc1ccc(C(F)(F)F)cn1)C(=O)Nc1ccccc12` [Example 169] was tested, and the IC50 was under 100 nM.
`[2H]C([2H])([2H])N(C(=O)C(=O)Nc1ccc(C(F)(F)F)cc1)[C@@H](CC1CC1)C(=O)N1C[C@]2(C[C@H]1C#N)C(=O)Nc1ccccc12` [Example 54] showed an IC50 of under 100 nM.
With `N#C[C@@H]1C[C@@]2(CN1C(=O)[C@H](CC1CC1)NC(=O)C(=O)Nc1c(C(F)(F)F)cncc1C(F)(F)F)C(=O)Nc1ccccc12` [Example 206] the IC50 was under 100 nM.
Work on `CCCC[C@H](NC(=O)C(=O)Nc1c(F)cccc1C(F)(F)F)C(=O)N1C[C@]2(C[C@H]1C#N)C(=O)Nc1ccccc12` [Example 79] yielded an IC50 of under 100 nM.
`Cc1ccnc(C)c1NC(=O)C(=O)N[C@@H](CC(C)(C)C)C(=O)N1C[C@]2(C[C@H]1C#N)C(=O)Nc1ccccc12` [Example 152] gave an IC50 of under 100 nM.
In the case of `CC(C)(C)C[C@H](NC(=O)C(=O)NC12CCC(CC1)CC2)C(=O)N1C[C@]2(C[C@H]1C#N)C(=O)Nc1ccccc12` [Example 130], the IC50 is reported as under 100 nM.
Compound `CC(C)(C)C[C@H](NC(=O)C(=O)Nc1c(C#N)cccc1C(F)(F)F)C(=O)N1C[C@]2(C[C@H]1C#N)C(=O)Nc1ccccc12` [Example 145] has an IC50 of 100 to 1000 nM.
For `CC(C)(C)C[C@H](NC(=O)C(=O)N1CCC(C(F)(F)F)CC1)C(=O)N1C[C@]2(C[C@H]1C#N)C(=O)Nc1ccccc12` [Example 112], the IC50 was 100 to 1000 nM.
For `CC(C)(C)C[C@H](NC(=O)C(=O)Nc1c(C(F)(F)F)cncc1C(F)(F)F)C(=O)N1C[C@]2(C[C@H]1C#N)C(=O)Nc1ccccc12` [Example 207], the IC50 was under 100 nM.
For `CC(C)(C)C[C@H](NC(=O)C(=O)Nc1c(F)ccc(F)c1F)C(=O)N1C[C@]2(C[C@H]1C#N)C(=O)Nc1ccccc12` [Example 150], the IC50 was under 100 nM.
In the case of `Cc1cccc(C(F)(F)F)c1NC(=O)C(=O)N[C@@H](CC(C)(C)C)C(=O)N1C[C@]2(C[C@H]1C#N)C(=O)Nc1ccccc12` [Example 132], the IC50 is reported as under 100 nM.
With `CC(C)(C)C[C@H](NC(=O)C(=O)Nc1cc(C(F)(F)F)ccn1)C(=O)N1C[C@]2(C[C@H]1C#N)C(=O)Nc1ccccc12` [Example 153] the IC50 was under 100 nM.
With `Cc1cccc(C)c1NC(=O)C(=O)N[C@@H](CC1CC1)C(=O)N1C[C@]2(C[C@H]1C#N)C(=O)Nc1ccccc12` [Example 78] the IC50 was under 100 nM.
`CC(C)(C)C[C@H](NC(=O)C(=O)NC1(C)CC1)C(=O)N1C[C@]2(C[C@H]1C#N)C(=O)Nc1ccccc12` [Example 140] gave an IC50 of under 100 nM.
In the case of `CC(C)(C)C[C@@H](C(=O)N1C[C@]2(C[C@H]1C#N)C(=O)Nc1ccccc12)N(CC(F)(F)F)C(=O)C(=O)NC1CC1` [Example 67], the IC50 is reported as 100 to 1000 nM.
With `CC(C)(C)C[C@H](NC(=O)C(=O)Nc1ccc(C(F)(F)F)cc1C(F)(F)F)C(=O)N1C[C@]2(C[C@H]1C#N)C(=O)Nc1ccccc12` [Example 166] the IC50 was under 100 nM.
Work on `CC(C)(C)C[C@H](NC(=O)C(=O)N[C@]12CC[C@H](C1)C2)C(=O)N1C[C@]2(C[C@H]1C#N)C(=O)Nc1ccccc12` [Example 136] yielded an IC50 of under 100 nM.
`CC(C)(C)C[C@H](NC(=O)C(=O)NC1(c2ccccc2C(F)(F)F)CC1)C(=O)N1C[C@]2(C[C@H]1C#N)C(=O)Nc1ccccc12` [Example 107] gave an IC50 of under 100 nM.
`N#C[C@@H]1C[C@@]2(CN1C(=O)[C@H](CC1CC1)NC(=O)C(=O)Nc1ncccc1C(F)(F)F)C(=O)Nc1ccccc12` [Example 167] showed an IC50 of under 100 nM.
`CC(C)(C)C[C@H](NC(=O)C(=O)Nc1ccc(C(F)(F)F)cn1)C(=O)N1C[C@]2(C[C@H]1C#N)C(=O)Nc1ccccc12` [Example 154] showed an IC50 of under 100 nM.
For `CC(C)(C)C[C@H](NC(=O)C(=O)Nc1ccc(C(F)(F)F)cc1C(F)(F)F)C(=O)N1C[C@]2(C[C@H]1C#N)C(=O)Nc1ccccc12` [Example 137], the IC50 was 100 to 1000 nM.
Compound `CC(C)(C)C[C@H](NC(=O)C(=O)Nc1c(Cl)cc(F)cc1Cl)C(=O)N1C[C@]2(C[C@H]1C#N)C(=O)Nc1ccccc12` [Example 204] has an IC50 of under 100 nM.
`CC(C)(C)C[C@@H](C(=O)N1C[C@]2(C[C@H]1C#N)C(=O)Nc1ccccc12)N(CC(F)F)C(=O)C(=O)Nc1ccccn1` [Example 61] was tested, and the IC50 was over 1000 nM.
Compound `CC(C)(C)C[C@@H](C(=O)N1C[C@]2(C[C@H]1C#N)C(=O)Nc1ccccc12)N(CC(F)F)C(=O)C(=O)NC1CC1` [Example 63] has an IC50 of 100 to 1000 nM.
Compound `CC(C)(C)C[C@H](NC(=O)C(=O)Nc1c(F)cccc1C(F)(F)F)C(=O)N1C[C@]2(C[C@H]1C#N)C(=O)Nc1ccccc12` [Example 196] has an IC50 of under 100 nM.
For `CC(C)(C)C[C@@H](C(=O)N1C[C@]2(C[C@H]1C#N)C(=O)Nc1ccccc12)N(CC(F)F)C(=O)C(=O)Nc1ccccc1` [Example 60], the IC50 was 100 to 1000 nM.
For `N#C[C@@H]1C[C@@]2(CN1C(=O)[C@H](CC1CC1)NC(=O)C(=O)Nc1c(C(F)(F)F)cccc1C(F)(F)F)C(=O)Nc1ccccc12` [Example 208], the IC50 was under 100 nM.
`CC(C)(C)C[C@@H](C(=O)N1C[C@]2(C[C@H]1C#N)C(=O)Nc1ccccc12)N(CC(F)F)C(=O)C(=O)Nc1ccc(F)cc1` [Example 62] was tested, and the IC50 was 100 to 1000 nM.
Compound `CC(C)(C)C[C@H](NC(=O)C(=O)N[C@]12C[C@](C)(C1)C2)C(=O)N1C[C@]2(C[C@H]1C#N)C(=O)Nc1ccccc12` [Example 141] has an IC50 of under 100 nM.
`N#C[C@@H]1C[C@@]2(CN1C(=O)[C@H](CC1CC1)NC(=O)C(=O)Nc1c(F)cccc1C(F)(F)F)C(=O)Nc1ccccc12` [Example 200] showed an IC50 of under 100 nM.
In the case of `CC(C)(C)C[C@H](NC(=O)C(=O)Nc1c(F)cncc1F)C(=O)N1C[C@]2(C[C@H]1C#N)C(=O)Nc1ccccc12` [Example 122], the IC50 is reported as under 100 nM.
For `CC(C)(C)C[C@H](NC(=O)C(=O)Nc1ccc(Cl)cc1C(F)(F)F)C(=O)N1C[C@]2(C[C@H]1C#N)C(=O)Nc1ccccc12` [Example 149], the IC50 was under 100 nM.
Work on `N#C[C@@H]1C[C@@]2(CN1C(=O)[C@H](CC1CC1)NC(=O)C(=O)Nc1ccc(C(F)(F)F)cc1C(F)(F)F)C(=O)Nc1ccccc12` [Example 199] yielded an IC50 of under 100 nM.
With `Cc1cc(F)cc(C)c1NC(=O)C(=O)N[C@@H](CC(C)(C)C)C(=O)N1C[C@]2(C[C@H]1C#N)C(=O)Nc1ccccc12` [Example 143] the IC50 was under 100 nM.
With `CC(C)(C)C[C@H](NC(=O)C(=O)Nc1ccncc1C(F)(F)F)C(=O)N1C[C@]2(C[C@H]1C#N)C(=O)Nc1ccccc12` [Example 177] the IC50 was under 100 nM.
`CC(C)(C)C[C@H](NC(=O)C(=O)N[C@]12C[C@](F)(C1)C2)C(=O)N1C[C@]2(C[C@H]1C#N)C(=O)Nc1ccccc12` [Example 142] showed an IC50 of under 100 nM.
With `CC(C)(C)C[C@@H](C(=O)N1C[C@]2(C[C@H]1C#N)C(=O)Nc1ccccc12)N(CC(F)(F)F)C(=O)C(=O)Nc1ccccn1` [Example 66] the IC50 was over 1000 nM.
Compound `CC(C)(C)C[C@H](NC(=O)C(=O)NC(C)(C)C(F)(F)F)C(=O)N1C[C@]2(C[C@H]1C#N)C(=O)Nc1ccccc12` [Example 135] has an IC50 of under 100 nM.
Compound `CC(C)(C)C[C@H](NC(=O)C(=O)N[C@]12C[C@](C(F)(F)F)(C1)C2)C(=O)N1C[C@]2(C[C@H]1C#N)C(=O)Nc1ccccc12` [Example 129] has an IC50 of under 100 nM.
For `N#C[C@@H]1C[C@@]2(CN1C(=O)[C@H](CC1CC1)NC(=O)C(=O)Nc1ccnc(C(F)(F)F)c1)C(=O)Nc1ccccc12` [Example 176], the IC50 was under 100 nM.
`Cc1ccc(NC(=O)C(=O)N[C@@H](CC(C)(C)C)C(=O)N2C[C@]3(C[C@H]2C#N)C(=O)Nc2ccccc23)nc1` [Example 127] was tested, and the IC50 was under 100 nM.
Compound `N#C[C@@H]1C[C@@]2(CN1C(=O)[C@H](CC1CC1)NC(=O)C(=O)Nc1c(Cl)cccc1C(F)(F)F)C(=O)Nc1ccccc12` [Example 194] has an IC50 of under 100 nM.
In the case of `Cc1cccc(NC(=O)C(=O)N[C@@H](CC(C)(C)C)C(=O)N2C[C@]3(C[C@H]2C#N)C(=O)Nc2ccccc23)n1` [Example 163], the IC50 is reported as under 100 nM.
With `N#C[C@@H]1C[C@@]2(CN1C(=O)[C@H](CC1CC1)NC(=O)C(=O)Nc1cccnc1C(F)(F)F)C(=O)Nc1ccccc12` [Example 175] the IC50 was under 100 nM.
With `N#C[C@@H]1C[C@@]2(CN1C(=O)[C@H](CC1CC1)NC(=O)C(=O)Nc1cc(C(F)(F)F)ccn1)C(=O)Nc1ccccc12` [Example 168] the IC50 was under 100 nM.
For `N#C[C@@H]1C[C@@]2(CN1C(=O)[C@H](CC1CC1)NC(=O)C(=O)Nc1c(Cl)cc(Cl)cc1C(F)(F)F)C(=O)Nc1ccccc12` [Example 205], the IC50 was under 100 nM.
For `CC(C)(C)C[C@H](NC(=O)C(=O)NC1(c2ccccc2F)CC1)C(=O)N1C[C@]2(C[C@H]1C#N)C(=O)Nc1ccccc12` [Example 139], the IC50 was under 100 nM.
In the case of `Cc1cccc(C)c1NC(=O)C(=O)N[C@@H](Cc1ccccc1)C(=O)N1C[C@]2(C[C@H]1C#N)C(=O)Nc1ccccc12` [Example 203], the IC50 is reported as under 100 nM.
In the case of `CC(C)(C)C[C@H](NC(=O)C(=O)NC1(C)CCC1)C(=O)N1C[C@]2(C[C@H]1C#N)C(=O)Nc1ccccc12` [Example 164], the IC50 is reported as under 100 nM.
Work on `N#C[C@@H]1C[C@@]2(CN1C(=O)[C@H](CC1CC1)NC(=O)C(=O)Nc1cncc(C(F)(F)F)c1)C(=O)Nc1ccccc12` [Example 173] yielded an IC50 of under 100 nM.
